{
  "source": "patent US20100183563A1",
  "about": "“DENTINOGENESIS PROMOTER AND DENTINOGENIC PULP-CAPPING MATERIAL” (ORGAN TECHNOLOGIES, INC., priority 2007, published 2010)",
  "molecules": {"B1": {"name": "Noggin: a BMP inhibitor (R&D systems) (protein, UniProt Q13253 28-232, looked up)", "Noggin": "QHYLHIRPAPSDNLPLVDLIEHPDPIFDPKEKDLNETLLRSLLGGHYDPGFMATSPPEDRPGGGGGAAGGAEDLAELDQLLRQRPSGAMPSEIKGLEFSEGLAQGKKQRLSKKLRRKLQMWLWSQTFCPVLYAWNDLGSRFWPRYVKVGSCFSKRSCSVPEGMVCKPSKSVHLTVLRWRCQRRGGQRCGWIPIQYPIISECKCSC"}},
  "type_in_all_cases": "cell-based, human",
  "key": {"[1]": {"tested_on": "dental pulp stem cells (DPSCs)", "assay": "Proliferation of dental pulp stem cells, cell number by the MTS method", "conditions": "for effect on proliferation of DPSCs compared with the control: 1 μM, Example 2, FIG. 5", "procedure": "Dental pulp stem cells (DPSCs) were isolated in accordance with a method of Gronthos et al. (Proc. Natl. Acad. Sci. USA, 97: 13625-30, 2000) from a human extracted tooth that was submitted with informed consent under the permission of Okayama University Dental School Ethics Committee.\nSpecifically, pulp obtained from an extracted human tooth was enzyme-treated for 30 minutes at 37° C. with 3 mg/ml type 1 collagenase (Worthington Biochemicals Corp.) and 4 mg/ml dispase (Roche Diagnostic/Boehringer Mannheim Corp.), and then cultured using α-MEM culture medium containing 10% fetal bovine serum (FBS), L-ascorbic acid (0.1 mM), L-glutamine (2 mM), penicillin (100 μg/ml), and streptomycin (100 μg/ml).\nSpecifically, the DPSCs prepared above (1) were cultured under 5% CO2 at 37° C. in α-MEM culture medium including 10% fetal bovine serum (FBS) containing SVS at a concentration of 1 μM, L-ascorbic acid (0.1 mM), L-glutamine (2 mM), penicillin (100 μg/ml), and streptomycin (100 μg/ml). The culture medium was exchanged twice a week, and the number of cells on […] was indirectly evaluated using the MTS method (Barltrop, J. A. et al. 5-(3-carboxymethoxyphenyl)-2-(4,5-dimenthylthiazoly)-3-(4-sulfophenyl)tetrazolium, inner salt (MTS) and related analogs of 3-(4,5-dimethylthiazolyl)-2,5-diphenyl-tetrazolium bromide (MTT) reducing to purple water-soluble formazans as cell-viability indicators. Bioorg. & Med. Chem. Lett. 1, 611, 1991).\nOn day 0, day 3, and day 5 from the beginning of cultivation, the cell number of DPSCs was measured using the MTS method.\nOn day 5 from the beginning of cultivation, the cell number of DPSCs was measured using the MTS method.\nSpecifically, in Example 1, section (2), dental pulp stem cells (DPSCs) were cultured in the presence of each of the following: (a) simvastatin (1 μM) (simvastatin added group); (b) simvastatin (1 μM) and mevalonate (1 mM) (mevalonate added group); and (c) simvastatin (1 μM), mevalonate (1 mM) and Fasudil (10 μM) (Fasudil combined use group). On day 0, day 3, and day 5 from the beginning of cultivation, the cell number of DPSCs was measured using the MTS method."}, "[2]": {"tested_on": "osteocalcin (OCN) gene expression in dental pulp stem cells (DPSCs)", "assay": "Gene expression of OCN (marker of calcification) in DPSCs by RT-PCR", "conditions": "for gene expression of OCN compared with the control and the comparison (BMP-2): 1 μM, day 14, Example 2, FIG. 6", "procedure": "(§1) Specifically, the DPSCs prepared above (1) were cultured under a 5% CO2 gas phase at 37° C. in α-MEM culture medium including 10% fetal bovine serum (FBS) containing SVS at a concentration of 1 μM, L-ascorbic acid (0.1 mM), L-glutamine (2 mM), penicillin (100 μg/ml), and streptomycin (100 μg/ml). Total RNA was collected from cells obtained on day 3, day 7, and day 10 from the beginning of cultivation, and gene expression of dentin sialophosphoprotein (DSPP), i.e., an odontoblast-specific marker (Ritchie H H et al. J. Biol. Chem., 269:3698-702, 1994; Butler W T et al. Matrix., 12:343-51, 1992), and gene expression of osteocalcin (OCN), i.e., a marker of calcification (Bronckers A L et al. Connect Tissue Res., 22:65-70, 1989) were evaluated using qualitative RT-PCR (Narayanan K et al., J. Biol. Chem., 281(28):19064-71, 2006).\nDental pulp stem cells (DPSCs) were cultured in a manner similar to Example 1, section (3), using simvastatin (1 μM), fluvastatin (1 μM), mevastatin (1 μM), lovastatin (1 μM), and plavastatin (200 μM) respectively as HGM-CoA reductase inhibitors. Gene expression of OCN, i.e., a marker of calcification was evaluated on day 14, using qualitative RT-PCR."}, "[3]": {"tested_on": "dentin sialophosphoprotein (DSPP) gene expression in dental pulp stem cells (DPSCs)", "assay": "Gene expression of DSPP (odontoblast-specific marker) in DPSCs by RT-PCR", "conditions": "SVS 1 μM, p=0.0111", "procedure": "as §1"}},
  "data": [
    {"molecule": "O=S(=O)(c1cccc2cnccc12)N1CCCNCC1", "note": "[Fasudil]", "values": [
      {"measurement": "effect on proliferation of DPSCs", "setting": "[1]; Fasudil at not less than 10 μM (tested 1, 10, 100 μM), day 5, FIG. 7", "result": "inhibited proliferation of DPSCs"},
      {"measurement": "effect on cell proliferation of DPSCs, Fasudil combined use group", "setting": "[1]; simvastatin 1 μM + mevalonate 1 mM + Fasudil 10 μM, day 5, FIG. 8", "result": "greater inhibition of cell proliferation of DPSCs than the comparison"}
    ]},
    {"molecule": "CC(C)n1c(/C=C/C(O)CC(O)CC(=O)O)c(-c2ccc(F)cc2)c2ccccc21", "note": "(stereo not drawn) [fluvastatin]", "values": [
      {"measurement": "effect on proliferation of DPSCs compared with the control", "setting": "[1]; day 5", "result": "inhibited proliferation of DPSCs with a significant difference"},
      {"measurement": "gene expression of OCN compared with the control and the comparison (BMP-2)", "setting": "[2]", "result": "increase in gene expression of OCN"}
    ]},
    {"molecule": "CC[C@H](C)C(=O)O[C@H]1C[C@@H](C)C=C2C=C[C@H](C)[C@H](CC[C@@H]3C[C@@H](O)CC(=O)O3)[C@H]21", "note": "[lovastatin]", "values": [
      {"measurement": "effect on proliferation of DPSCs compared with the control", "setting": "[1]; day 5", "result": "inhibited proliferation of DPSCs with a significant difference"},
      {"measurement": "gene expression of OCN compared with the control and the comparison (BMP-2)", "setting": "[2]", "result": "increase in gene expression of OCN"}
    ]},
    {"molecule": "CC(O)(CCO)CC(=O)O", "note": "(stereo not drawn) [mevalonate]", "values": [
      {"measurement": "effect of mevalonate supply on simvastatin-induced inhibition of DPSC proliferation", "setting": "[1]; simvastatin 1 μM + mevalonate 1 mM, day 5, FIG. 8", "result": "disappearance of the cell proliferation inhibiting effect"}
    ]},
    {"molecule": "CC[C@H](C)C(=O)O[C@H]1CCC=C2C=C[C@H](C)[C@H](CC[C@@H]3C[C@@H](O)CC(=O)O3)[C@H]21", "note": "[mevastatin]", "values": [
      {"measurement": "effect on proliferation of DPSCs compared with the control", "setting": "[1]; day 5", "result": "inhibited proliferation of DPSCs with a significant difference"},
      {"measurement": "gene expression of OCN compared with the control and the comparison (BMP-2)", "setting": "[2]", "result": "increase in gene expression of OCN"}
    ]},
    {"molecule": "O=C(O)C[C@H](O)C[C@H](O)/C=C/c1c(C2CC2)nc2ccccc2c1-c1ccc(F)cc1", "note": "[pitavastatin]", "values": [
      {"measurement": "effect on proliferation of DPSCs compared with the control", "setting": "[1]; day 5", "result": "inhibited proliferation of DPSCs with a significant difference"}
    ]},
    {"molecule": "CCC(C)(C)C(=O)O[C@H]1C[C@@H](C)C=C2C=C[C@H](C)[C@H](CC[C@@H]3C[C@@H](O)CC(=O)O3)[C@H]21", "note": "[simvastatin]", "values": [
      {"measurement": "increase in gene expression of DSPP", "setting": "[3]", "result": 10.9, "unit": "fold"},
      {"measurement": "proliferation of dental pulp stem cells (DPSCs)", "setting": "[1]; SVS 1 μM, day 5 from the beginning of cultivation, vs control (PBS), significant decrease, p<0.0001", "result": 0.73, "unit": "fold"},
      {"measurement": "increase in gene expression of OCN compared with the BMP-2", "setting": "[2]; SVS 1 μM vs BMP-2 100 ng/ml, DPSCs, p=0.0002, Scheffe's multiple comparison test", "result": 7.4, "unit": "fold"},
      {"measurement": "increase in gene expression of OCN compared with the control", "setting": "[2]; SVS 1 μM, DPSCs, p=0.0004, Scheffe's multiple comparison test", "result": 18.8, "unit": "fold"}
    ]},
    {"molecule": "B1", "values": [
      {"measurement": "effect on cellular proliferation of DPSCs compared with the control", "setting": "[1]; day 5, Example 4, FIG. 9, statin = simvastatin 1 μM", "result": "an effect on cellular proliferation of DPSCs was not observed"}
    ]}
  ]
}
